Assay results published in patent US20230143604A1, “QW DOSING OF GIP RECEPTOR AGONIST PEPTIDE COMPOUNDS AND USES THEREOF” (TAKEDA PHARMACEUTICAL COMPANY LIMITED, priority 2020, published 2023).
Starred links: 1 amine or outer side, 2 acyl side, 3 side chain; linkers in the order of their positions; H or OH if unused. Non-standard residues stand in square brackets, D forms with d. Residues, ends and D or L forms follow the SMILES beside them. Groups on a side chain read outwards from the residue. *: point of attachment. C20 diacid = O=C(O)CCCCCCCCCCCCCCCCCCC(=O)*; C18 diacid = O=C(O)CCCCCCCCCCCCCCCCC(=O)*; C17 diacid = O=C(O)CCCCCCCCCCCCCCCC(=O)*; γGlu = O=C(O)[C@H](CCC(=O)[*:2])N[*:1]; NMeY = CN[C@@H](Cc1ccc(O)cc1)C(=O)O; AEEA = NCCOCCOCC(=O)O; Aib = CC(C)(N)C(=O)O

Assay: Solubility in phosphate buffer pH 7.4
Procedure, shortened: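 3 mg of peptide treated with 100 μL portions of 200 mM phosphate buffer pH 7.4, sonicating/vortexing up to 1 min, with further buffer added until fully dissolved. Solubility then quantified by HPLC.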

[1] = pH 7.4, aqueous buffer, pH 7.4 Phosphate Buffer - Solubility, 200 mM Phosphate buffer pH 7.4
[2] = pH 7.4, solubility in phosphate buffer at pH 7.4, 200 mM phosphate buffer pH 7.4

Compound: CC[C@H](C)[C@H](NC(=O)[C@H](CCCCN)NC(=O)[C@H](CC(=O)O)NC(=O)[C@H](CC(C)C)NC(=O)[C@H](C)NC(=O)[C@@H](NC(=O)[C@H](CO)NC(=O)[C@H](Cc1ccc(O)cc1)NC(=O)[C@H](CC(=O)O)NC(=O)[C@H](CO)NC(=O)[C@@H](NC(=O)[C@H](Cc1ccccc1)NC(=O)[C@@H](NC(=O)CNC(=O)[C@H](CCC(=O)O)NC(=O)C(C)(C)NC(=O)[C@@H](N)Cc1ccc(O)cc1)[C@@H](C)O)[C@@H](C)CC)[C@@H](C)CC)C(=O)N[C@@H](C)C(=O)N[C@@H](CCC(N)=O)C(=O)N[C@@H](CCCNC(=N)N)C(=O)N[C@@H](CCCCNC(=O)COCCOCCNC(=O)COCCOCCNC(=O)CC[C@H](NC(=O)CC[C@H](NC(=O)CCCCCCCCCCCCCCCC(=O)O)C(=O)O)C(=O)O)C(=O)N[C@@H](Cc1ccccc1)C(=O)N[C@H](C(=O)N[C@@H](CCC(=O)O)C(=O)N[C@@H](Cc1c[nH]c2ccccc12)C(=O)N[C@@H](CC(C)C)C(=O)N[C@@H](CC(C)C)C(=O)N[C@@H](C)C(=O)N[C@@H](CCC(N)=O)C(=O)N[C@@H](CCCNC(=N)N)C(=O)N1CCC[C@H]1C(=O)N[C@@H](CO)C(=O)N[C@@H](CO)C(=O)NCC(=O)N[C@@H](C)C(=O)N1CCC[C@H]1C(=O)N1CCC[C@H]1C(=O)N1CCC[C@H]1C(=O)N[C@@H](CO)C(=O)O)C(C)C [Compound 135] (H-Y[Aib]EGTFISDYSIALDKIAQRK([AEEA-AEEA-γGlu-γGlu-C17 diacid])FVEWLLAQRPSSGAPPPS-OH)
- solubility [1]: ≥ 30 mg/mL
- solubility [2]: ≥ 15 mg/mL

Compound: CC[C@H](C)[C@H](NC(=O)[C@H](Cc1ccccc1)NC(=O)[C@@H](NC(=O)CNC(=O)[C@H](CCC(=O)O)NC(=O)C(C)(C)NC(=O)[C@H](Cc1ccc(O)cc1)NC)[C@@H](C)O)C(=O)N[C@@H](CO)C(=O)N[C@@H](CC(=O)O)C(=O)N[C@@H](Cc1ccc(O)cc1)C(=O)N[C@@H](CO)C(=O)N[C@H](C(=O)NC(C)(C)C(=O)N[C@@H](CC(C)C)C(=O)N[C@@H](CC(=O)O)C(=O)N[C@@H](CCCNC(=N)N)C(=O)NC(C)(C)C(=O)N[C@@H](C)C(=O)N[C@@H](CCC(N)=O)C(=O)NC(C)(C)C(=O)N[C@@H](CCCCNC(=O)COCCOCCNC(=O)COCCOCCNC(=O)CC[C@H](NC(=O)CC[C@H](NC(=O)CCCCCCCCCCCCCCCCCCC(=O)O)C(=O)O)C(=O)O)C(=O)N[C@@H](Cc1ccccc1)C(=O)N[C@H](C(=O)N[C@@H](CC(N)=O)C(=O)N[C@@H](Cc1c[nH]c2ccccc12)C(=O)N[C@@H](CC(C)C)C(=O)N[C@@H](CC(C)C)C(=O)N[C@@H](C)C(=O)N[C@@H](CCC(N)=O)C(=O)N[C@@H](CCCNC(=N)N)C(=O)N1CCC[C@H]1C(=O)N[C@@H](CO)C(=O)N[C@@H](CO)C(=O)NCC(=O)N[C@@H](C)C(=O)N1CCC[C@H]1C(=O)N1CCC[C@H]1C(=O)N1CCC[C@H]1C(=O)N[C@@H](CO)C(N)=O)C(C)C)[C@@H](C)CC [Compound 101] (H-[NMeY][Aib]EGTFISDYSI[Aib]LDR[Aib]AQ[Aib]K([AEEA-AEEA-γGlu-γGlu-C20 diacid])FVNWLLAQRPSSGAPPPS-NH2)
- solubility [1]: ≥ 60 mg/mL
- solubility [2]: ≥ 15 mg/mL

Compound: CC[C@H](C)[C@H](NC(=O)[C@H](CO)NC(=O)[C@H](Cc1ccc(O)cc1)NC(=O)[C@H](CC(=O)O)NC(=O)[C@H](CO)NC(=O)[C@@H](NC(=O)[C@H](Cc1ccccc1)NC(=O)[C@@H](NC(=O)CNC(=O)[C@H](CCC(=O)O)NC(=O)C(C)(C)NC(=O)[C@H](Cc1ccc(O)cc1)NC)[C@@H](C)O)[C@@H](C)CC)C(=O)N[C@@H](C)C(=O)N[C@@H](CC(C)C)C(=O)N[C@@H](CC(=O)O)C(=O)N[C@@H](CCCNC(=N)N)C(=O)NC(C)(C)C(=O)N[C@@H](CCCCNC(=O)COCCOCCNC(=O)COCCOCCNC(=O)CC[C@H](NC(=O)CC[C@H](NC(=O)CCCCCCCCCCCCCCCCC(=O)O)C(=O)O)C(=O)O)C(=O)N[C@@H](CCC(N)=O)C(=O)NC(C)(C)C(=O)N[C@@H](CC(N)=O)C(=O)N[C@@H](Cc1ccccc1)C(=O)N[C@H](C(=O)N[C@@H](CC(N)=O)C(=O)N[C@@H](Cc1c[nH]c2ccccc12)C(=O)N[C@@H](CC(C)C)C(=O)N[C@@H](CC(C)C)C(=O)N[C@@H](C)C(=O)N[C@@H](CCC(N)=O)C(=O)N[C@@H](CO)C(=O)NCC(=O)O)C(C)C [Compound 46] (H-[NMeY][Aib]EGTFISDYSIALDR[Aib]K([AEEA-AEEA-γGlu-γGlu-C18 diacid])Q[Aib]NFVNWLLAQSG-OH)
- solubility (pH 7.4): ≥ 15 mg/mL
- solubility (pH 7.4, aqueous buffer): ≥ 30 mg/mL

Compound: CC[C@H](C)[C@H](NC(=O)[C@H](Cc1ccccc1)NC(=O)[C@@H](NC(=O)CNC(=O)[C@H](CCC(=O)O)NC(=O)C(C)(C)NC(=O)[C@H](Cc1ccc(O)cc1)NC)[C@@H](C)O)C(=O)N[C@@H](CO)C(=O)N[C@@H](CC(=O)O)C(=O)N[C@@H](Cc1ccc(O)cc1)C(=O)N[C@@H](CO)C(=O)N[C@H](C(=O)NC(C)(C)C(=O)N[C@@H](CC(C)C)C(=O)N[C@@H](CC(=O)O)C(=O)N[C@@H](CCCNC(=N)N)C(=O)NC(C)(C)C(=O)N[C@@H](C)C(=O)N[C@@H](CCC(N)=O)C(=O)NC(C)(C)C(=O)N[C@@H](CCCCNC(=O)COCCOCCNC(=O)COCCOCCNC(=O)CC[C@H](NC(=O)CC[C@H](NC(=O)CCCCCCCCCCCCCCCC(=O)O)C(=O)O)C(=O)O)C(=O)N[C@@H](Cc1ccccc1)C(=O)N[C@H](C(=O)N[C@@H](CC(N)=O)C(=O)N[C@@H](Cc1c[nH]c2ccccc12)C(=O)N[C@@H](CC(C)C)C(=O)N[C@@H](CC(C)C)C(=O)N[C@@H](C)C(=O)N[C@@H](CCC(N)=O)C(=O)N[C@@H](CO)C(=O)N1CCC[C@H]1C(=O)NCC(=O)O)C(C)C)[C@@H](C)CC [Compound 126] (H-[NMeY][Aib]EGTFISDYSI[Aib]LDR[Aib]AQ[Aib]K([AEEA-AEEA-γGlu-γGlu-C17 diacid])FVNWLLAQSPG-OH)
- solubility (pH 7.4): ≥ 15 mg/mL
- solubility (pH 7.4, aqueous buffer): ≥ 30 mg/mL

Compound: CC[C@H](C)[C@H](NC(=O)[C@H](CCCNC(=N)N)NC(=O)[C@H](CC(=O)O)NC(=O)[C@H](CC(C)C)NC(=O)[C@H](C)NC(=O)[C@@H](NC(=O)[C@H](CO)NC(=O)[C@H](Cc1ccc(O)cc1)NC(=O)[C@H](CC(=O)O)NC(=O)[C@H](CO)NC(=O)[C@@H](NC(=O)[C@H](Cc1ccccc1)NC(=O)[C@@H](NC(=O)CNC(=O)[C@H](CCC(=O)O)NC(=O)C(C)(C)NC(=O)[C@H](Cc1ccc(O)cc1)NC)[C@@H](C)O)[C@@H](C)CC)[C@@H](C)CC)C(=O)N[C@@H](C)C(=O)N[C@@H](CCC(N)=O)C(=O)N[C@@H](CCC(N)=O)C(=O)N[C@@H](CCCCNC(=O)COCCOCCNC(=O)COCCOCCNC(=O)CC[C@H](NC(=O)CC[C@H](NC(=O)CCCCCCCCCCCCCCCCC(=O)O)C(=O)O)C(=O)O)C(=O)N[C@@H](Cc1ccccc1)C(=O)N[C@H](C(=O)N[C@@H](CC(N)=O)C(=O)N[C@@H](Cc1c[nH]c2ccccc12)C(=O)N[C@@H](CC(C)C)C(=O)N[C@@H](CC(C)C)C(=O)N[C@@H](C)C(=O)N[C@@H](CCC(N)=O)C(=O)N[C@@H](CO)C(=O)N1CCC[C@H]1C(=O)N[C@@H](CO)C(=O)N[C@@H](CO)C(=O)NCC(=O)N[C@@H](C)C(=O)N1CCC[C@H]1C(=O)N1CCC[C@H]1C(=O)N1CCC[C@H]1C(=O)N[C@@H](CO)C(=O)O)C(C)C [Compound 177] (H-[NMeY][Aib]EGTFISDYSIALDRIAQQK([AEEA-AEEA-γGlu-γGlu-C18 diacid])FVNWLLAQSPSSGAPPPS-OH)
- solubility [1]: ≥ 30 mg/mL
- solubility [2]: ≥ 15 mg/mL

Compound: CC[C@H](C)[C@H](NC(=O)[C@H](Cc1ccccc1)NC(=O)[C@@H](NC(=O)CNC(=O)[C@H](CCC(=O)O)NC(=O)C(C)(C)NC(=O)[C@H](Cc1ccc(O)cc1)NC)[C@@H](C)O)C(=O)N[C@@H](CO)C(=O)N[C@@H](CC(=O)O)C(=O)N[C@@H](Cc1ccc(O)cc1)C(=O)N[C@@H](CO)C(=O)N[C@H](C(=O)NC(C)(C)C(=O)N[C@@H](CC(C)C)C(=O)N[C@@H](CC(=O)O)C(=O)N[C@@H](CCCNC(=N)N)C(=O)NC(C)(C)C(=O)N[C@@H](C)C(=O)N[C@@H](C)C(=O)NC(C)(C)C(=O)N[C@@H](CCCCNC(=O)COCCOCCNC(=O)COCCOCCNC(=O)CC[C@H](NC(=O)CC[C@H](NC(=O)CCCCCCCCCCCCCCCCC(=O)O)C(=O)O)C(=O)O)C(=O)N[C@@H](Cc1ccccc1)C(=O)N[C@H](C(=O)N[C@@H](CC(N)=O)C(=O)N[C@@H](Cc1c[nH]c2ccccc12)C(=O)N[C@@H](CC(C)C)C(=O)N[C@@H](CC(C)C)C(=O)N[C@@H](C)C(=O)N[C@@H](CCC(N)=O)C(=O)N[C@@H](CCCNC(=N)N)C(=O)N1CCC[C@H]1C(=O)N[C@@H](CO)C(=O)N[C@@H](CO)C(=O)NCC(=O)N[C@@H](C)C(=O)N1CCC[C@H]1C(=O)N1CCC[C@H]1C(=O)N1CCC[C@H]1C(=O)N[C@@H](CO)C(N)=O)C(C)C)[C@@H](C)CC [Compound 106] (H-[NMeY][Aib]EGTFISDYSI[Aib]LDR[Aib]AA[Aib]K([AEEA-AEEA-γGlu-γGlu-C18 diacid])FVNWLLAQRPSSGAPPPS-NH2)
- solubility [1]: ≥ 30 mg/mL
- solubility [2]: ≥ 15 mg/mL

Compound: CC[C@H](C)[C@H](NC(=O)[C@H](CCCCN)NC(=O)[C@H](CC(=O)O)NC(=O)[C@H](CC(C)C)NC(=O)[C@H](C)NC(=O)[C@@H](NC(=O)[C@H](CO)NC(=O)[C@H](Cc1ccc(O)cc1)NC(=O)[C@H](CC(=O)O)NC(=O)[C@H](CO)NC(=O)[C@@H](NC(=O)[C@H](Cc1ccccc1)NC(=O)[C@@H](NC(=O)CNC(=O)[C@H](CCC(=O)O)NC(=O)C(C)(C)NC(=O)[C@@H](N)Cc1ccc(O)cc1)[C@@H](C)O)[C@@H](C)CC)[C@@H](C)CC)C(=O)N[C@@H](C)C(=O)N[C@@H](CCC(N)=O)C(=O)N[C@@H](CCC(N)=O)C(=O)N[C@@H](CCCCNC(=O)COCCOCCNC(=O)COCCOCCNC(=O)CC[C@H](NC(=O)CC[C@H](NC(=O)CCCCCCCCCCCCCCCC(=O)O)C(=O)O)C(=O)O)C(=O)N[C@@H](Cc1ccccc1)C(=O)N[C@H](C(=O)N[C@@H](CCC(=O)O)C(=O)N[C@@H](Cc1c[nH]c2ccccc12)C(=O)N[C@@H](CC(C)C)C(=O)N[C@@H](CC(C)C)C(=O)N[C@@H](C)C(=O)N[C@@H](CCC(N)=O)C(=O)N[C@@H](CCCNC(=N)N)C(=O)N1CCC[C@H]1C(=O)N[C@@H](CO)C(=O)N[C@@H](CO)C(=O)NCC(=O)N[C@@H](C)C(=O)N1CCC[C@H]1C(=O)N1CCC[C@H]1C(=O)N1CCC[C@H]1C(=O)N[C@@H](CO)C(=O)O)C(C)C [Compound 134] (H-Y[Aib]EGTFISDYSIALDKIAQQK([AEEA-AEEA-γGlu-γGlu-C17 diacid])FVEWLLAQRPSSGAPPPS-OH)
- solubility [1]: ≥ 30 mg/mL
- solubility [2]: ≥ 15 mg/mL
